Test results as given in patent publication US6676950B2, “Neurokinin receptor antagonists and methods of use thereof for inhibiting HIV infection” (The Children's Hospital of Philadelphia, priority 2001, dated 2004).

How the values were obtained:
HIV Bal strain [1] = assay: HIV gag mRNA in infected MDM by RT-PCR / real time RT-PCR; type: cell-based; settings: 12 days after infection
Method: HIV Infection: After 2 h incubation with or without the reagents described above, the cells were infected with equal amounts of cell-free HIV based on p24 antigen content (20 ng/10^6 cells) overnight, and then washed to remove unbound virus. Fresh media containing SP and/or CP-96,345 or anti-SP antibody were added to the MDM as described above. The culture media and the reagents were replaced twice weekly. The culture supernatants were harvested for HIV reverse transcriptase (RT) activity determinations. After HIV infection, the MDM were incubated for 8 to 12 days. At the termination of the experiments, cellular RNA was extracted for assessment of HIV gag gene expression using RT-PCR or real time RT-PCR assays.
Total RNA was isolated from human peripheral blood MDM (10^6 cells) using Tri-Reagent (Molecular Research Center, Cincinnati, Ohio) as we previously reported (16).
Reverse transcription: Total RNA (1 μg) was reverse transcribed using Reverse Transcription System (Promega, Madison, Wis.) with the specific primers (antisense) for HIV gag (5′-[…]-[…]-3′; SEQ ID NO: 1) (27) or CCR5 (5′-[…]-3′; SEQ ID NO: 2) (32) for 1 h at 42° C. RT reactions was terminated by incubating the reaction mixture at 99° C. for 5 min and then kept at 4° C. The resulting cDNA was used as a template for PCR amplification or real time PCR quantification. […]

TNF-α = assay: LPS-stimulated TNF-α production in MDM by ELISA; type: cell-based, human; settings: 10^−9 to 10^−7M; LPS 1 ng/ml; 24 h
Method: (§1) In order to determine the role of CP-96,345 in the regulation of cytokine secretion, 7-day-cultured MDM were incubated with or without CP-96,345 (10^−9 to 10^−7M) and/or LPS (1 ng/ml) for 24 h. The culture supernatants were collected to determine TNF-A and IL-6 levels by ELISA. The ELISA kits were purchased from Endogen, Inc. (Woburn, Mass.).

IL-6 = assay: LPS-stimulated IL-6 production in MDM by ELISA; type: cell-based, human; settings: 10^−9 to 10^−7M; LPS 1 ng/ml; 24 h
Method: as §1

SP mRNA = SP mRNA expression in MDM by real-time RT-PCR; type: cell-based, human; settings: 4 hours; percentage of untreated MDM
Method: FIG. 17. A graph showing the effect of CP-96,345 on SP mRNA expression in MDM. The MDM were incubated with (+) or without (−) the NK-1R antagonist at the indicated concentration for 4 hours. The SP mRNA levels were determined by a real-time RT-PCR. The SP mRNA levels in the CP-96,345 treated MDM are expressed as a percentage of that in untreated MDM which are defined as 100%.
The effect of CP-96,345 on SP mRNA expression in MDM was also determined. The MDM were incubated with (+) or without (−) the NK-1R antagonist at the indicated concentration for 4 hours. The SP mRNA levels were determined by a real-time RT-PCR.

HIV Bal strain [2] = assay: HIV-induced syncytia formation in MDM; type: cell-based; settings: 10^−7M; 12 days after infection; light microscope
Method: Syncytia formation: To study the effect of neuropeptide antagonists on HIV-induced syncytia formation in MDM, 7-day-cultured macrophages were incubated in the presence or absence of CP-96,345 (10^−7M) for 2 h and then infected with HIV Bal strain. MDM which were neither incubated with CP-96,345 nor infected with HIV were used as a cell culture control. The morphology of HIV-induced syncytia formation was observed and photographed by a light microscopy (X 400) 12 days after HIV infection.

SMILES: COc1ccccc1CN[C@H]1C2CCN(CC2)[C@H]1C(c1ccccc1)c1ccccc1 [CP-96,345, [2S,3S)-cis-2-(diphenylmethyl)-N-[(2-methoxyphenyl)-methyl]-1-azabicyclo [[2.2.2]-octan-3-amine]]
- HIV gag mRNA expression (RT-PCR) (HIV Bal strain [1]; 10^−11 to 10^−7 M): potently inhibited
- HIV gag gene mRNA copy numbers (real time RT-PCR) (HIV Bal strain [1]; same samples): significantly suppress
- LPS-stimulated TNF-A production in MDM (TNF-α): attenuated
- IL-6 production in MDM (IL-6): not affected
- SP mRNA expression in MDM (real-time RT-PCR) (SP mRNA): significantly inhibited
- giant syncytia formation induced by HIV Bal strain infection (HIV Bal strain [2]): failed to develop the giant syncytia
